How the values were obtained:
[1] = target: hNox4 (Homo sapiens (Human), UniProt Q9NPH5); assay: hNox4 membrane assay (Amplex Red, cell-free); assay type: biochemical
Protocol: (§1) Reactive oxygen produced in whole cells or in membrane preparation of Nox1, Nox3, Nox4, Nox5 and xanthine oxidase and glucose oxidase were determined using Amplex Red as detection probe of formed H2O2. Amplex Red (10-acetyl-3,7-dihydroxyphenoxazine) in combination with HRP and co-factors reacts with H2O2 in a 1:1 stoichiometry to form a highly fluorescent resorufin excitated at 544 nm producing emission at 590 nm.
Membranes from transfected cells overexpressing Nox1 (CHO), Nox2 (PLB), Nox3 (HEK), Nox4 (HEK) or Nox5 (HEK) were prepared as described in Pailcz et al., 2001, J. Biol. Chem, 76, 3090-3097. Cells were suspended and homogenized in sonication buffer containing PBS, sucrose (11%), NaCl (120 mM) and EGTA (1 mM) supplemented with protease inhibitors and further processed and then broken by sonication cooled with an ice bath. Then the sample was centrifuged at 200×g for 10 min. Supernatant was carefully added on top of a 17/40% discontinuous sucrose gradient and centrifuged at 150 000×g for 60 min. Membranes containing Nox isoforms were collected at the 17/40% sucrose interface as described by Jaquet V, et al., Br J Pharmacol 2011; 164:507-520. For the Nox isoforms Nox1, Nox2, Nox3 a subunit-specific cell-free, membrane-based system has been developed and recombinant proteins of the subunits were added to receive activation of the Nox-iso forms in the cell-free assay. The Amplex Red assay was performed in black 96-well flat bottom plates. Assay reagents including HRP ([…]), FAD (6 μM), phosphatidic acid (15 μM) and Amplex Red (50 μM) were added followed by NADPH (30 μM) to initiate production of hydrogen peroxide. The production of hydrogen peroxide was followed by use of a fluorescence plate reader, read at 37° C. every minute between 30-60 minutes.

[2] = target: Nox4 expressing HEK293 cells (Homo sapiens (Human), UniProt Q9NPH5); assay: Oxygen consumption in Nox4 expressing HEK293 cells; assay type: cell-based
Nox4 expressing HEK293 cells, sequence (Q9NPH5 whole entry): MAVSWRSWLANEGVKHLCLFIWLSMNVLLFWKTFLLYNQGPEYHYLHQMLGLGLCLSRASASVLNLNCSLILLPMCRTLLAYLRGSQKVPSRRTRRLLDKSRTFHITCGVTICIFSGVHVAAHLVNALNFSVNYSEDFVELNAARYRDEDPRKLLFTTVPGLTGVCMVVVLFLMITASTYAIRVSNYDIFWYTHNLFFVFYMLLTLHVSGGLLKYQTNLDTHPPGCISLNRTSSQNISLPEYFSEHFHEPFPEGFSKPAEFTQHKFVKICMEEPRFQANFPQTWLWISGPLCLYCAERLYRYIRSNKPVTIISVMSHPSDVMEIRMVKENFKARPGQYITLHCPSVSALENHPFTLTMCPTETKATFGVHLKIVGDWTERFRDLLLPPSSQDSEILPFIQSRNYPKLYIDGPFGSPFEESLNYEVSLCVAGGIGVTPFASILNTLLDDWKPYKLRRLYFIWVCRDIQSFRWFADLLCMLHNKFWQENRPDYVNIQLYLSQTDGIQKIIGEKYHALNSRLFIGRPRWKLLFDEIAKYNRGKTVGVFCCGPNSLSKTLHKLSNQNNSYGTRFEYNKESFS
Nox4 expressing HEK293 cells, sequence (P13498 2-195 partner): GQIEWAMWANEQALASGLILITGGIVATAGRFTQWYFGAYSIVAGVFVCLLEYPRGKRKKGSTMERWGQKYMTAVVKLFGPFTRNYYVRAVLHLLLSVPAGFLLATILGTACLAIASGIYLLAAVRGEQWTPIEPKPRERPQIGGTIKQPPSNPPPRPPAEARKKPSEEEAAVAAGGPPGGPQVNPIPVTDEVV

[3] = target: Nox1 expressing CHO cells (Homo sapiens (Human), UniProt Q9Y5S8); assay: Oxygen consumption in Nox1 expressing CHO cells; assay type: cell-based
Nox1 expressing CHO cells, sequence (Q9Y5S8 whole entry): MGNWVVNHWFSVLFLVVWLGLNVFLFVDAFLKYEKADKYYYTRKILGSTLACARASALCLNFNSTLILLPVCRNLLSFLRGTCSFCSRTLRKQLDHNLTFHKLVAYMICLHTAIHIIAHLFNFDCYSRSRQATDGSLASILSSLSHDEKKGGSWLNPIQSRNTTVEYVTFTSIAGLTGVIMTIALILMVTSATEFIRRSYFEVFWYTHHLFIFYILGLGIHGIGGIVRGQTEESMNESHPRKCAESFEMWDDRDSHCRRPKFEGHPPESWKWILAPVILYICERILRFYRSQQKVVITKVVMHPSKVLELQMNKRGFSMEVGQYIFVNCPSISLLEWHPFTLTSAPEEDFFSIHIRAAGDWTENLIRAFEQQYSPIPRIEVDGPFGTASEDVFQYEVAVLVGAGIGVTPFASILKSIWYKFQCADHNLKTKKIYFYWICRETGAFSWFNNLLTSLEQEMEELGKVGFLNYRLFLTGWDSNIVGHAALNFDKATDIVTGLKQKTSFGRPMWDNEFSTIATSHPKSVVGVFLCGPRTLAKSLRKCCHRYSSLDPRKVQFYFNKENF
Nox1 expressing CHO cells, sequence (P13498 2-195 partner): as the sequence (P13498 2-195 partner) above

[4] = target: glucose oxidase (Aspergillus niger, UniProt P13006); assay: Amplex Red and glucose oxidase (GO) assay; assay type: biochemical; parameters: key: The sign “—” stands for “inactive”
glucose oxidase, sequence (P13006 17-605): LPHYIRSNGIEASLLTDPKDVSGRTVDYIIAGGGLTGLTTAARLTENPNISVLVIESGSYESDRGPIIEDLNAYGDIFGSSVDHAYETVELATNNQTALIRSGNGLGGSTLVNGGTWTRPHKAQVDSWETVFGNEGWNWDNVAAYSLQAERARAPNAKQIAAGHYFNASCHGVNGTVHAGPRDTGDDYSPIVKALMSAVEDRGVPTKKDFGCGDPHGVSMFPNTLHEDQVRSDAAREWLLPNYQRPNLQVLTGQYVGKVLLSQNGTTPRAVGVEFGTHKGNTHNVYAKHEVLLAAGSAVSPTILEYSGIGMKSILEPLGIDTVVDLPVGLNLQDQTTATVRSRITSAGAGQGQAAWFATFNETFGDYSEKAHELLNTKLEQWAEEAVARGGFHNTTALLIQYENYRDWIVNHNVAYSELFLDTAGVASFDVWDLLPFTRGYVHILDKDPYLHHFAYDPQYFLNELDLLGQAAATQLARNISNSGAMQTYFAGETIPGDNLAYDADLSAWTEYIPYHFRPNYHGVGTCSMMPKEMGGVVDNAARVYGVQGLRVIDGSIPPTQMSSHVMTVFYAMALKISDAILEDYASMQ
Protocol: as §1
The assay was performed using a modified form of Invitrogen Amplex™ Red Glucose/Glucose Oxidase Assay Kit Cat no: A22189. Test compounds were incubated with 5 mU/ml glucose oxidase for 30 min at room temperature, followed by the addition of substrate and detection mix (final concentrations of 0.1 U/ml HRP, 10 mM glucose, 50 μM Amplex Red in phosphate buffer pH 7.4) and then fluorescence detection of hydrogen peroxide production was performed during 30 min at 37° C. in a plate reader that use excitation at 544 nm producing emission at 590 nm.

[5] = tested on: human brain micro-vascular endothelial cells; assay: In vitro stroke model: endothelial cells subjected to hypoxia and glucose deprivation; assay type: cell-based; conditions: hypoxia and glucose deprivation 5 h (Example 44: 6 h), viability after 24 hours of culture
Protocol: (§2) FIG. 1 is a bar chart showing cell viability as a ratio of basal cell viability of human brain microvascular endothelial cells subjected to hypoxia and starvation (OGD: oxygen and glucose deprivation) for 5 h and then cultured for 24 h in the absence or presence of Example 11 at a concentration of 2, 10 or 20 μM. Basal=no hypoxia or starvation, cells cultured in the presence of culture medium only. OGD=5 h of hypoxia or starvation, cells cultured in the presence of culture medium only.
as §2, with “2” for “1”, “(OGD)” for “(OGD: oxygen and glucose deprivation)”, “17” for “11”, “0.3, 3 or” for “2,”, “10” for “10 or 20”
FIG. 3 is a bar chart showing cell viability as a ratio of basal cell viability of human brain microvascular endothelial cells subjected to hypoxia and starvation (OGD: oxygen and glucose deprivation) for 6 h and then cultured for 24 h in the absence or presence of Example 44 at a concentration of from 0.6 to 9.6 μM. Basal=no hypoxia or starvation, cells cultured in the presence of culture medium only. OGD=6 h of hypoxia or starvation, cells cultured in the presence of culture medium only (*p<0.05, ***p<0.001).
Hippocampal brain slices and human brain micro-vascular endothelial cells were subjected to hypoxia and glucose deprivation (starvation) for 5 hours and were tested for viability after 24 hours of culture in the presence of Example 11 or Example 17 at different concentrations. Additionally, human brain micro-vascular endothelial cells were subjected to hypoxia and glucose deprivation (starvation) for 6 hours and were tested for viability after 24 hours of culture in the presence of Example 44 at various concentrations.

[6] = tested on: rat lens epithelial explants; assay: TGFβ-induced lens epithelial to mesenchymal transition (EMT) in rat lens epithelial explants; assay type: cell-based; conditions: co-treatment with TGFβ, Example 11 2.4 μM, Example 17 0.3 μM; for progression of TGFβ-induced EMT: 5 days culture
Protocol: Ocular tissues were collected from postnatal-day-21 albino Wistar rats (Rattus norvegicus) that were sacrificed by asphyxiation and subsequent cervical dislocation.
(§3) Lens epithelial explants were prepared as previously described (Wang Q, et al., Investigative ophthalmology & visual science. 2010; 51(7):3599-610) and cultured in Medium 199 (M199) with Earle's salts (Life Technologies, USA), supplemented with 50 μg/mL L-glutamine, 50 IU/mL penicillin/50 μg/mL streptomycin (Thermo Scientific, USA), 2.5 μg/mL Amphostat B (Thermo Scientific, USA) and 0.1% bovine serum albumin (BSA) (Sigma, USA). M199 was equilibrated at 37° C., 5% CO2. To induce EMT, recombinant TGF-β2 was added to media in each culture dish at a working concentration of […] (R&D Systems, USA). Prior to the addition of TGF-β2, some explants were pre-treated for 30 minutes with Example 11 or Example 17, at working concentrations of 2.4 μM and 0.3 μM, respectively. The progression of EMT in live cells was observed and captured using phase-contrast microscopy (Olympus CK2, Japan) and a digital camera (Leica DFC-280, Germany). Percentage cell loss quantification was performed using the thresholding function of ImageJ (NIH), such that cells could be distinguished from bare lens capsule.

[7] = tested on: rat lens epithelial explants; assay: qRT-PCR gene expression analysis in TGFβ-treated rat lens epithelial explants; assay type: cell-based; conditions: 48 hours of culture, Example 11 2.4 μM, Example 17 0.3 μM; for aSMA expression (mRNA): Example 17 at a higher degree than Example 11
Protocol: as §3
Quantitative RT-PCR (qRT-PCR) gene expression analysis was performed as previously described (Shu D, et al., Investigative ophthalmology & visual science. 2017; 58(2):781-96.).
For data analysis, the 2^-ΔΔCt method was used to estimate the relative fold change in gene expression. Using the 2^-ΔΔCt method, the gene of interest was quantified relative to, firstly, the housekeeping gene, GAPDH and, secondly, to relative gene expression in untreated explants.

hNox4, sequence (Q9NPH5 whole entry): as the sequence (Q9NPH5 whole entry) above
hNox4, sequence (P13498 2-195 partner): as the sequence (P13498 2-195 partner) above

| Compound | Ki [1] | Inhibition of oxygen consumption in Nox4 expressing HEK293 cells [2] | Inhibition of oxygen consumption in Nox1 expressing CHO cells [3] | IC50 GO [4] | neuroprotective effect (cell viability) [5] | progression of TGFβ-induced EMT [6] | morphology of remaining cells by day 5 [6] | TGFβ-driven upregulation of Col1A and Fn (mRNA) [7] | aSMA expression (mRNA) [7] |
| --- | --- | --- | --- | --- | --- | --- | --- | --- | --- |
| Cc1ccccc1CCNS(=O)(=O)c1c(Cl)cc(Br)cc1Cl [Example 17, 4-bromo-2,6-dichloro-N-[2-(2-methylphenyl)ethyl]benzene-1-sulfonamide] | 560 nM | yes | No | — | neuroprotective effect | appeared to delay the progression of EMT | some of the remaining cells appeared epithelial-like | downregulate the TGFβ-driven upregulation of Col1A and Fn | downregulate aSMA expression |
| O=S(=O)(NCCc1ccccc1Cl)c1c(Cl)cc(C2CC2)cc1Cl [Example 26, 2,6-dichloro-N-[2-(2-chlorophenyl)ethyl]-4-cyclopropylbenzene-1-sulfonamide] | 2200 nM | yes | No | — |  |  |  |  |  |
| Cc1ccccc1CCNS(=O)(=O)c1c(C)cccc1Cl [Example 11, 2-chloro-6-methyl-N-[2-(2-methylphenyl)ethyl]benzene-1-sulfonamide] | 4400 nM | yes | No | — | neuroprotective effect | a similar effect was obtained | some of the remaining cells appeared epithelial-like | downregulate the TGFβ-driven upregulation of Col1A and Fn | downregulate aSMA expression |
| Cc1cc(Cl)c(S(=O)(=O)NCCc2ccccc2O)c(C)c1O [Example 44, 6-chloro-3-hydroxy-N-[2-(2-hydroxyphenyl)ethyl]-2,4-dimethyl-benzenesulfonamide] |  |  |  |  | neuroprotective effect |  |  |  |  |

Source: patent US12202790B2, “Sulfonamide derivatives having selective Nox inhibiting activity” (GLUCOX BIOTECH AB, priority 2018, dated 2025)
